Results taken from US20160214958A1, “COMPOUNDS AND USE FOR TREATING CANCER” (GLIONOVA AB, priority 2013, published 2016).
Like-named read-outs stand apart in the source and are kept apart here.

Key:
zebrafish embryos = conditions: in vivo
Experimental: To assess the selectivity of compounds on mixed cultures consisting of GSC with other cell types, a hanging drop-based mixed culture procedure was developed. U3013MG GSCs were labeled with a cell tracker red and fibroblasts with a cell tracker green fluorescent dye for co-cultures to assess selective effects on glioma cells (glioblastoma) in a mixed culture setting. Cells organized in layers in the absence of compounds.
A zebrafish model was used to assess the developmental and cardiac toxicity of advanced hits from the screen. For the developmental toxicity experiment, zebrafish embryos at one-cell stage were distributed into a 96 well plate (3 embryos per well in 200 μl of egg water) and exposed to DMSO as a control or various concentration of compounds. The egg water (with or without compound) was replaced every 6 hrs and the embryos were allowed to grow for three days. The embryos were monitored every day and allowed to grow for 5 days before the phenotype was recorded. For the cardiotoxicity assay, an ex vivo culture of adult hearts was performed according to our previously published procedure (Kitambi et al., (2012) BMC Physiol. 12, 3). Adult hearts from male zebrafish were exposed to compounds and the effect on the heart beat was recorded and analysed using developed methods (Kitambi et al., (2012) BMC Physiol. 12, 3).

[1] = tested on: ex-vivo adult zebrafish hearts; assay: Cardiotoxicity, ex vivo adult zebrafish hearts; conditions: frequency spectral analysis of heart beating
Experimental: A xenotransplantation model for GBM in zebrafish was developed to test the capacity of the 17 hits to prevent tumor formation in vivo. Three thousand U3013MG GSCs labeled with cell tracker red were injected intracranially into the ventricle of 48-52 hpf larvae. Each of the 17 hits were administered to the egg water at the lowest effective in vitro cytotoxic concentration identified and tumor development assessed 10 days later. This assay allowed rapid evaluation of the compounds in an in vivo setup, features such as the acute/chronic toxicity effect of the compounds on zebrafish and the transplanted cells, transplanted cell proliferation and migration of cells into brain parenchyma, compounds penetrance into the zebrafish tissue were all parallely evaluated. […] Cardiovascular toxicity was assessed using a recently established model based on frequency spectral analysis of heart beating in ex-vivo adult zebrafish hearts (Kitambi et al., (2012) BMC Physiol. 12, 3).
A zebrafish model was used to assess the developmental and cardiac toxicity of advanced hits from the screen. […] The embryos were monitored every day and allowed to grow for 5 days before the phenotype was recorded. […] Adult hearts from male zebrafish were exposed to compounds and the effect on the heart beat was recorded and analysed using developed methods (Kitambi et al., (2012) BMC Physiol. 12, 3).

[2] = tested on: glioma stem cell line U3013; assay: In vitro cancer cell and CSC viability assay (ATP quantification, CellTiterGlo); format: cell-based, human; conditions: Homo sapiens; U3013, 24 hours exposure; read-out: In vitro efficacy (viability) EC50
Experimental: The ability of Examples S1-S23 to selectively induce cytotoxicity in glioma/glioblastoma cancer cells or glioma/glioblastoma cancer stem cells was determined by quantification of ATP production in glioma stem cell line U3013 in the presence of using CellTiterGlo reagent (Promega). Cells were exposed to compound in serial dilution in the range 1 nM to 50 µM for 24 hours and viability assessed with respect to negative control (dmso, no cell death) and positive control (staurosporine, full cell death). […] The EC50 of S10 remained largely similar at 2, 3 and 4 days of incubation. […] The individual isomers (S21-S23) of racemic S10 were evaluated in order to determine the enantiospecific pharmacology of the individual isomers.
Negative (100% DMSO) and positive (10 mM S10 in 100% DMSO) controls were placed in rows 1-4 and 5-8, respectively, of column 12. The wells were diluted with 190 μl of the corresponding growth media and 5 μl of each well of compound solution transferred to quadruplicate wells of a sterile 384-well black clear bottom plate (BD Falcon) containing GSC at 70% confluency in 45 μl growth media. The plate was incubated for 24 hours, after which the plate was removed from the incubator and each well imaged in bright-field using an Operetta Imaging system (PerkinElmer) at 37° C. and 5% CO2 to determine vacuole accumulation at each concentration. The plate was then allowed to cool to room temperature and each well treated with 25 μl freshly CellTiterGlo (Promega) reagent. The plate was shaken for 15 minutes and luminescence measured using a Victor3 (Perkin Elmer) microtiterplate reader. Total luminescence was normalized relative to control and curve fitting performed using GraphPad Prism (v6.02) software.

[3] = Pharmacokinetic evaluation of Vacquinol-1 stereoisomers, plasma and brain; format: in vivo, NMRI (SR/RS) or BALB/c (Vrac) mice; conditions: for Cmax Brain / tlast Brain / tlast Plasma / AUC(0-t) / half-life / Tmax / Cmax: mice
Experimental: The pharmacokinetics of Vacquinol-1 (racemic), Vacquinol-1RS and Vacquinol-1SR, were determined in NMRI (SR/RS) or BALB/c (Vrac) mice following single intravenous (i.v.) or per oral (p.o) administration of 2 or 20 mg/kg Vacquinol-1, respectively. Blood and brain samples were taken from animals at the following nominal time points: 15, 30, and 60 minutes, and 2, 4, 6, 8, 24, 48, 72 and 144 hours after dosing (n=3/time-point). Bioanalytical quantification of Vacquinol-1 was analysed in plasma and brain samples by a UPLC-MS/MS.
Pharmacokinetics were calculated by non-compartmental analysis (NCA) from composite (mean) profiles. Nominal sampling times and dose levels have been used for the NCA calculations.

Structure (SMILES): OC(c1cc(-c2ccc(Cl)cc2)nc2ccccc12)C1CCCCN1 (racemic) [Compound S10, (2-(4-chlorophenyl)quinolin-4-yl)(piperidin-2-yl)methanol]
- effect on zebrafish development (zebrafish embryos): did not exert any effect of zebrafish development
- cardiac toxicity, heart beating [1]: small or no effects
- EC50 [2]: 2.36 µM
- Cmax Brain ([3]; 2 mg/kg i.v.): 514 ng/mL
- tlast Brain ([3]; 2 mg/kg i.v.): 144 h
- tlast Plasma ([3]; 2 mg/kg i.v.): 144 h
- Cmax Brain ([3]; 20 mg/kg p.o.): 1860 ng/mL
- tlast Brain ([3]; 20 mg/kg p.o.): 144 h
- tlast Plasma ([3]; 20 mg/kg p.o.): 144 h
- Kp ([3]; NMRI (single stereoisomers SR/RS), BALB/c (racemate), mouse, brain and plasma, 20 mg/kg, after oral dosing, read-out: relative brain/plasma exposure ratio (AUClast(brain)/AUClast(plasma))): 0.6
- AUC(0-t) ([3]; NMRI (single stereoisomers SR/RS), BALB/c (racemate), mouse, brain, iv, 2 mg/kg i.v., read-out: AUClast Brain): 20.4 µg·h/mL
- half-life ([3]; NMRI (single stereoisomers SR/RS), BALB/c (racemate), mouse, brain, iv, 2 mg/kg i.v., read-out: t1/2 Brain (converted)): 63 h
- AUC(0-t) ([3]; NMRI (single stereoisomers SR/RS), BALB/c (racemate), mouse, brain, po, 20 mg/kg p.o., read-out: AUClast Brain): 167 µg·h/mL
- Tmax ([3]; NMRI (single stereoisomers SR/RS), BALB/c (racemate), mouse, brain, po, 20 mg/kg p.o., read-out: tmax Brain): 48 h
- Cmax ([3]; NMRI (single stereoisomers SR/RS), BALB/c (racemate), mouse, plasma, iv, 2 mg/kg i.v.): 467 ng/mL
- AUC(0-t) ([3]; NMRI (single stereoisomers SR/RS), BALB/c (racemate), mouse, plasma, iv, 2 mg/kg i.v., read-out: AUClast Plasma): 64.5 µg·h/mL
- half-life ([3]; NMRI (single stereoisomers SR/RS), BALB/c (racemate), mouse, plasma, iv, 2 mg/kg i.v., read-out: t1/2 Plasma (converted)): 52 h
- Cmax ([3]; NMRI (single stereoisomers SR/RS), BALB/c (racemate), mouse, plasma, po, 20 mg/kg p.o.): 3280 ng/mL
- AUC(0-t) ([3]; NMRI (single stereoisomers SR/RS), BALB/c (racemate), mouse, plasma, po, 20 mg/kg p.o., read-out: AUClast Plasma): 292 µg·h/mL
- Tmax ([3]; NMRI (single stereoisomers SR/RS), BALB/c (racemate), mouse, plasma, po, 20 mg/kg p.o., read-out: tmax Plasma): 24 h
- Cmax exposures ratio (Cmax(brain)/Cmax(plasma)) ([3]; after oral dosing): 0.6
